Source: patent US8741911B2, “Raf inhibitor compounds” (Eli Lilly and Company, priority 2012, dated 2014)
Read-outs that look alike come from different tables or passages of the source.

How the values were obtained:
MV-4-11 = assay: CellTiter-Glo proliferation and viability assay; assay type: cell-based; conditions: Homo sapiens
NCI-H2052 = assay: CellTiter-Glo proliferation and viability assay; assay type: cell-based; conditions: Homo sapiens
U-266 = assay: CellTiter-Glo proliferation and viability assay; assay type: cell-based; conditions: Homo sapiens, read-out: Abs IC50
Sk-MeI-2 cells = assay: CellTiter-Blue SK-MeI-2 cell proliferation assay; assay type: cell-based; conditions: Homo sapiens; SK-Mel-2, CellTiter-Blue; read-out: Cell Proliferation Inhibition IC50
Procedure: Sk-MeI-2 cells (catalog #HTB-68) are obtained from the American Type Culture Collection (ATCC, Manassas, Va.). Briefly, cells are grown in MEM supplemented with 10% characterized fetal bovine serum (Invitrogen, Carlsbad, Calif.), 1 mM sodium pyruvate, 0.1 mM non-essential amino acids, and 1% Penicillin/Streptomycin/L-Glutamine at 37 degrees Celsius, 5% CO2, and 95% humidity. Cells are allowed to expand until reaching 70-95% confluency at which point they are subcultured or harvested for assay use. A serial dilution of test compound is dispensed into a 384-well black clear bottom plate in triplicate. One thousand two-hundred fifty cells are added per well in 50 μL complete growth medium in the 384-well plate. Plates are incubated for 67 hours at 37 degrees Celsius, 5% CO2, and 95% humidity. At the end of the incubation period, 10 μL of a 440 μM solution of resazurin (Sigma, St. Louis, Mo.) in PBS is added to each well of the plate and plates are incubated for an additional 5 hours at 37 degrees Celsius, 5% CO2, and 95% humidity. Plates are read on a Synergy2 reader (Biotek, Winooski, Vt.) using an excitation of 540 nm and an emission of 600 nm. Data is analyzed using Prism software (Graphpad, San Diego, Calif.) to calculate IC50 values.
The A375, HT-29, and Colo-205 cells (ATCC) harbor a V600E mutation.

HuH-7 = assay: CellTiter-Glo proliferation and viability assay; assay type: cell-based; conditions: Homo sapiens, read-out: Rel IC50
[1] = test system: phospho-MEK and phospho-ERK in SK-MeI-2 cells; assay: Immunoblotting (Western Blot) analysis of phospho-MEK and phospho-ERK; assay type: cell-based, human; conditions: SK-MeI-2, Western Blot
Procedure: N-Ras mutations B-Raf wild type leads to MAPK activation through Raf proteins, particularly C-Raf.
(§1) Testing is carried out at doses of 0, and 11 serial dilutions ranging from 0.17 to 10000 nM. Protein lysates are generated by treatment of the cells with RIPA lysis buffer from Millipore. Western blotting analysis is performed substantially as described in Yadav et al, Molecular Carcinogenesis, 2011, 50: 346-52. Briefly, SDS-PAGE is performed on cell lysates containing 20 ug of total protein using 4-20% Novex® tri-glycine gradient gels (Invitrogen). Protein is transferred onto […] nitrocellulose membranes using NuPAGE® Transfer Buffer (Invitrogen) and 10% methanol at 100 V, 4° C. for 1 hr. Generally, the primary antibody is used at 1:1000 dilution, and secondary antibody at 1:20000 dilution. Proteins are detected using the Odyssey Infrared Imaging System (Li-COR Biosciences). Antibodies against ERK1/2, phospho-ERK1/2, phospho-MEK1/2, and actin are obtained from Cell Signaling Technology.

[2] = test system: phospho-MEK and phospho-ERK in HCT-116 cells harboring B-Raf wild type and K-Ras mutation; assay: Immunoblotting (Western Blot) analysis, paradoxical pathway activation; assay type: cell-based, human
Procedure: as §1
Testing is carried out at doses of 0, and 11 serial dilutions ranging from 0.17 to 10000 nM. The phospho-MEK and phospho-ERK activities were evaluated by Immunoblotting (Western Blot) analysis.

[3] = test system: hematologic cancer cell lines with N-Ras mutations B-Raf wild type; assay: CellTiter-Glo proliferation and viability assay, N-Ras mutant hematologic panel; assay type: cell-based; conditions: Homo sapiens; 7 of the 9 hematologic cancer cell lines with N-Ras mutations B-Raf wild type
Procedure: Additional N-RAS mutant B-Raf wild type hematologic cancer cell lines were tested for sensitivity to Example 1. N-Ras activating mutations are common in hematologic cancers occurring at a frequency of 10-30%. Two B-Raf V600E mutant melanoma cell lines (A-375 and SK-Mel-28), nine N-Ras mutant hematologic cell lines (HL-60, THP-1, TALL-1, C8166, H9, IM-9, GA-10 clone 4, P31-FUJ, MOLT-4) and seven N-Ras wild-type cell lines (LOUCY, HEL, U266, EB2, P30-OHK, NOMO-1, CCRF-CEM) were tested, and the IC50 data reported.

NCI-H661 = assay: CellTiter-Glo proliferation and viability assay; assay type: cell-based; conditions: Homo sapiens
22RV1 = assay: CellTiter-Glo proliferation and viability assay; assay type: cell-based; conditions: Homo sapiens
PC-3 = assay: CellTiter-Glo proliferation and viability assay; assay type: cell-based; conditions: Homo sapiens
NCI-H2009 = assay: CellTiter-Glo proliferation and viability assay; assay type: cell-based; conditions: Homo sapiens
[4] = test system: phospho-ERK in A375 V600E cells; assay: SureFire phospho-ERK AlphaScreen cellular assay; assay type: cell-based; conditions: Homo sapiens, A-375, 1 hour treatment
Procedure: (§2) A375 V600E, WM-266-4 V600E, HCT-116 K-Ras mutant B-Raf wild type are from ATCC. The cellular activities are assessed by an ELISA assay commercially available from TGR Biosciences to measure the phospho-ERK levels of each cell type.
(§3) The cells in each well are then lysed with 50 μl lysis buffer from TGR Biosciences. The phospho-ERK activities are determined with SureFire phospho-ERK AlphaScreen assay kit from TGR Biosciences per manufacturer's instruction.

[5] = test system: phospho-ERK in HCT-116 (K-Ras mutant B-Raf wild type) cells; assay: SureFire phospho-ERK AlphaScreen cellular assay; assay type: cell-based; conditions: Homo sapiens, 1 hour treatment
Procedure: as §2, §3

[6] = test system: phospho-ERK in WM-266-4 V600E cells; assay: SureFire phospho-ERK AlphaScreen cellular assay; assay type: cell-based; conditions: Homo sapiens, 1 hour treatment
Procedure: as §2, §3

[7] = test system: phospho-ERK in A375 V600E-PLX4032 resistant cells (A375-res); assay: SureFire phospho-ERK AlphaScreen cellular assay; assay type: cell-based; conditions: Homo sapiens, A-375, 1 hour treatment
Procedure: as §2, §3

TALL-1 = assay: CellTiter-Glo proliferation and viability assay; assay type: cell-based; conditions: Homo sapiens, read-out: Abs IC50
LOUCY = assay: CellTiter-Glo proliferation and viability assay; assay type: cell-based; conditions: Homo sapiens, read-out: Abs IC50
NCI-H1993 = assay: CellTiter-Glo proliferation and viability assay; assay type: cell-based; conditions: Homo sapiens

CNc1ncc2cc(-c3cc(NC(=O)NCCC(C)(C)C)c(F)cc3C)c(C)nc2n1 [Example 1, 1-(3,3-Dimethylbutyl)-3-(2-fluoro-4-methyl-5-(7-methyl-2-(methylamino)pyrido[2,3-d]pyrimidin-6-yl)phenyl)urea]
IC50 (MV-4-11; MV4-11, read-out: Abs IC50): 0.98 nM
IC50 (MV-4-11; MV4-11, read-out: Rel IC50): 1.87 nM
IC50 (NCI-H2052; read-out: Abs IC50): 1.27 nM
IC50 (NCI-H2052; read-out: Rel IC50): 0.33 nM
IC50 (U-266): 1.1 nM
IC50 (Sk-MeI-2 cells): 158 nM
IC50 (HuH-7): 0.13 nM
dose at which phospho-ERK activity is substantially eliminated [1]: 370 nM
phospho-MEK and phospho-ERK inhibition ([1]; 0.17 to 10000 nM): dose dependent phospho-MEK and phospho-ERK inhibition
paradoxical pathway activation ([2]; HCT-116, B-Raf wild type and K-Ras mutation): minimal paradoxical pathway activation
doses that substantially eliminate phospho-ERK signal ([2]; HCT-116, Western Blot): above 41 nM
IC50 [3]: < 1000 nM
IC50 (NCI-H661; read-out: Abs IC50): > 20 nM
IC50 (NCI-H661; read-out: Rel IC50): 12.6 nM
IC50 (22RV1; read-out: Abs IC50): 1.96 nM
IC50 (22RV1; read-out: Rel IC50): 0.19 nM
IC50 (PC-3; read-out: Abs IC50): > 20 nM
IC50 (PC-3; read-out: Rel IC50): > 20 nM
IC50 (NCI-H2009; read-out: Abs IC50): 11.9 nM
IC50 (NCI-H2009; read-out: Rel IC50): 1.58 nM
IC50 [4]: 3 nM
IC50 [5]: 133 nM
IC50 [6]: 4.9 nM
IC50 [7]: 9.7 nM
IC50 (TALL-1): 0.75 nM
IC50 (LOUCY): 6.93 nM
IC50 (NCI-H1993; read-out: Abs IC50): 0.17 nM
IC50 (NCI-H1993; read-out: Rel IC50): 0.09 nM
